{"source": "PubChem BioAssay AID743440", "about": "(Broad Institute, 2014)", "key": {"[1]": {"assay": "HepG2 cell cytotoxicity, dose response, cytotoxicity control, plate reader, dry powder, set 11 (AID 743440)", "settings": "HepG2 viability, ATP luminescence (CellTiter-Glo), 72 h"}, "[2]": {"tested_on": "HepG2 viability, ATP luminescence (CellTiter-Glo), 72 h", "assay": "HepG2 cell cytotoxicity, dose response, cytotoxicity control, plate reader, dry powder, set 11 (AID 743440)"}}, "note": "Activity calls are given as the source filed them.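 The calls were made as follows: active = AC50 for cell killing below 10 µM, with the signal falling as expected; inactive = the rest, including compounds acting in the opposite direction.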", "data": [{"smiles": "O=C(COc1ccccc1C(=O)NCc1ccccc1)Nc1ccccc1", "values": [{"measurement": "activity change, negative = cytotoxicity", "setting": "[1]; at 26 µM (top of the series)", "value": "-9.2% (inactive)"}]}, {"smiles": "O=C(CSc1c2c(nc3ccc(Cl)cc13)CCCC2)NCc1ccc2c(c1)OCO2", "values": [{"measurement": "AC50", "setting": "[2]", "value": "> 52 µM (inactive)"}]}, {"smiles": "CN(C(=O)COc1ccccc1C(=O)Nc1ccccc1)c1ccccc1", "values": [{"measurement": "activity change, negative = cytotoxicity", "setting": "[1]; at 26 µM (top of the series)", "value": "-11.2% (inactive)"}]}, {"smiles": "CN(CCNC(=O)CSc1c2c(nc3ccc(Cl)cc13)CCCC2)Cc1ccccc1", "values": [{"measurement": "AC50", "setting": "[2]", "value": "> 52 µM (inactive)"}]}, {"smiles": "CCOc1ccc(NC(=O)COc2ccc(C(=O)N3CCC(C(N)=O)CC3)cc2OC)cc1", "values": [{"measurement": "activity change, negative = cytotoxicity", "setting": "[1]; at 26 µM (top of the series)", "value": "-12.6% (inactive)"}]}, {"smiles": "CCN1CCCC1CNC(=O)CSc1c2c(nc3ccc(Cl)cc13)CCCC2", "note": "(configuration not stated)", "values": [{"measurement": "AC50", "setting": "[2]", "value": 16.1, "unit": "µM"}]}, {"smiles": "CN(C(=O)COc1ccc(Cl)cc1C(N)=O)c1ccccc1", "values": [{"measurement": "activity change, negative = cytotoxicity", "setting": "[1]; at 26 µM (top of the series)", "value": "6.24% (inactive)"}]}, {"smiles": "O=C(CSc1c2c(nc3ccc(Cl)cc13)CCCC2)NCc1cccs1", "values": [{"measurement": "activity change, negative = cytotoxicity", "setting": "[1]; at 12 µM (top of the series)", "value": "-11.9% (inactive)"}]}, {"smiles": "COc1cc(C(=O)NCCCN(C)C)ccc1OCC(=O)Nc1cccc(C(F)(F)F)c1", "values": [{"measurement": "AC50", "setting": "[2]", "value": "> 52 µM (inactive)"}]}, {"smiles": "O=C(CSc1c2c(nc3ccc(Cl)cc13)CCCC2)Nc1ccc(Cl)cc1", "values": [{"measurement": "AC50", "setting": "[2]", "value": "> 52 µM (inactive)"}]}, {"smiles": "CCN(CC)C(=O)CSc1c2c(nc3ccc(Cl)cc13)CCCC2", "values": [{"measurement": "activity change, negative = cytotoxicity", "setting": "[1]; at 26 µM (top of the series)", "value": "-8.05% (inactive)"}]}, {"smiles": "CCOC(=O)C1CCN(C(=O)c2ccc(OCC(=O)N3CCOCC3)c(OC)c2)CC1", "values": [{"measurement": "activity change, negative = cytotoxicity", "setting": "[1]; at 26 µM (top of the series)", "value": "-12.3% (inactive)"}]}, {"smiles": "O=C(O)CSc1c2c(nc3cc(C(=O)NCc4cccs4)ccc13)CCCC2", "values": [{"measurement": "activity change, negative = cytotoxicity", "setting": "[1]; at 26 µM (top of the series)", "value": "-3.5% (inactive)"}]}, {"smiles": "COc1ccc(N(Cc2cccs2)C(=O)COc2ccccc2C(=O)Nc2ccccc2)cc1", "values": [{"measurement": "activity change, negative = cytotoxicity", "setting": "[1]; at 26 µM (top of the series)", "value": "-1.88% (inactive)"}]}, {"smiles": "CC1(C)CC(NC(=O)c2ccc(OCC(=O)Nc3cccc(C(F)(F)F)c3)cc2)CC(C)(C)N1", "values": [{"measurement": "AC50", "setting": "[2]", "value": "> 52 µM (inactive)"}]}, {"smiles": "CCN(CC)CCCNC(=O)c1ccc(OCC(=O)Nc2ccccc2C(F)(F)F)c(OC)c1", "values": [{"measurement": "AC50", "setting": "[2]", "value": "> 52 µM (inactive)"}]}, {"smiles": "CN(C(=O)COc1ccccc1C(=O)NCCc1ccccc1)c1ccccc1", "values": [{"measurement": "AC50", "setting": "[2]", "value": "> 52 µM (inactive)"}]}, {"smiles": "O=C(CSc1c2c(nc3cc(Cl)ccc13)CCCC2)N(Cc1ccco1)C1CCCC1", "values": [{"measurement": "AC50", "setting": "[2]", "value": "> 52 µM (inactive)"}]}, {"smiles": "COCCNC(=O)CSc1c2c(nc3ccc(Cl)cc13)CCCC2", "values": [{"measurement": "AC50", "setting": "[2]", "value": "> 52 µM (inactive)"}]}, {"smiles": "O=C(CSc1c2c(nc3ccc(Cl)cc13)CCCC2)NC1CC1", "values": [{"measurement": "AC50", "setting": "[2]", "value": "> 52 µM (inactive)"}]}, {"smiles": "O=C(COc1ccc(C(=O)NC2CCCCC2)cc1)Nc1cccc(C(F)(F)F)c1", "values": [{"measurement": "AC50", "setting": "[2]", "value": "> 52 µM (inactive)"}]}, {"smiles": "NC(=O)C1CCN(C(=O)c2ccc(OCC(=O)Nc3cccc(C(F)(F)F)c3)cc2)CC1", "values": [{"measurement": "activity change, negative = cytotoxicity", "setting": "[1]; at 26 µM (top of the series)", "value": "-3.5% (inactive)"}]}, {"smiles": "Cc1cccc(NC(=O)CSc2c3c(nc4ccc(Cl)cc24)CCCC3)n1", "values": [{"measurement": "AC50", "setting": "[2]", "value": 26.2, "unit": "µM"}]}, {"smiles": "O=C(CSc1ccc2ccccc2n1)NCc1ccco1", "values": [{"measurement": "activity change, negative = cytotoxicity", "setting": "[1]; at 26 µM (top of the series)", "value": "-2.89% (inactive)"}]}, {"smiles": "Cn1c(=O)cc(SCC(=O)NCc2ccco2)c2ccccc21", "values": [{"measurement": "activity change, negative = cytotoxicity", "setting": "[1]; at 26 µM (top of the series)", "value": "2.16% (inactive)"}]}, {"smiles": "O=C(CSc1c2c(nc3ccc(Cl)cc13)CCCC2)N1CCCCC1", "values": [{"measurement": "activity change, negative = cytotoxicity", "setting": "[1]; at 26 µM (top of the series)", "value": "-19.8% (inactive)"}]}, {"smiles": "CCCCOc1ccc(NC(=O)COc2ccccc2C(=O)NCCOc2ccccc2)cc1", "values": [{"measurement": "AC50", "setting": "[2]", "value": "> 52 µM (inactive)"}]}, {"smiles": "CN(C)c1ccc(NC(=O)COc2ccccc2C(=O)N2CCOCC2)cc1", "values": [{"measurement": "activity change, negative = cytotoxicity", "setting": "[1]; at 26 µM (top of the series)", "value": "8.33% (inactive)"}]}, {"smiles": "CCCNC(=O)CSc1c2c(nc3ccc(Cl)cc13)CCCC2", "values": [{"measurement": "AC50", "setting": "[2]", "value": "> 52 µM (inactive)"}]}, {"smiles": "O=C(CSc1c2c(nc3ccccc13)CCCC2)NCc1ccco1", "values": [{"measurement": "AC50", "setting": "[2]", "value": "> 52 µM (inactive)"}]}, {"smiles": "O=C(COc1ccc(C(=O)N2CCN(C(=O)C3CC3)CC2)cc1)Nc1cccc(C(F)(F)F)c1", "values": [{"measurement": "activity change, negative = cytotoxicity", "setting": "[1]; at 26 µM (top of the series)", "value": "-22.9% (inactive)"}]}, {"smiles": "O=C(COc1ccc(C(=O)NCC2CCCO2)cc1)Nc1cccc(C(F)(F)F)c1", "note": "(configuration not stated)", "values": [{"measurement": "activity change, negative = cytotoxicity", "setting": "[1]; at 26 µM (top of the series)", "value": "-9.73% (inactive)"}]}, {"smiles": "O=C(CSc1cccc2cccnc12)NCc1ccco1", "values": [{"measurement": "activity change, negative = cytotoxicity", "setting": "[1]; at 26 µM (top of the series)", "value": "9.13% (inactive)"}]}, {"smiles": "Cn1cc(SCC(=O)NCc2ccco2)c2ccccc21", "values": [{"measurement": "activity change, negative = cytotoxicity", "setting": "[1]; at 26 µM (top of the series)", "value": "-5.75% (inactive)"}]}, {"smiles": "CCOC(=O)C1CCN(C(=O)c2ccc(OCC(=O)Nc3ccc(OCC)cc3)c(OC)c2)CC1", "values": [{"measurement": "activity change, negative = cytotoxicity", "setting": "[1]; at 26 µM (top of the series)", "value": "-2.93% (inactive)"}]}, {"smiles": "CC(Sc1c2c(nc3ccc(Cl)cc13)CCCC2)C(=O)NCc1ccco1", "note": "(configuration not stated)", "values": [{"measurement": "AC50", "setting": "[2]", "value": "> 52 µM (inactive)"}]}, {"smiles": "O=C(CSc1c2c(nc3ccc(Cl)cc13)CCCC2)NC1CCN(Cc2ccccc2)CC1", "values": [{"measurement": "AC50", "setting": "[2]", "value": 26.3, "unit": "µM"}]}, {"smiles": "O=C(CSc1c2c(nc3ccc(Cl)cc13)CCCC2)N1CCN(Cc2ccccc2)CC1", "values": [{"measurement": "AC50", "setting": "[2]", "value": "> 52 µM (inactive)"}]}, {"smiles": "COc1ccc(CNC(=O)CSc2c3c(nc4ccc(Cl)cc24)CCCC3)cc1", "values": [{"measurement": "AC50", "setting": "[2]", "value": "> 52 µM (inactive)"}]}, {"smiles": "COc1ccc(OCCNC(=O)c2ccccc2OCC(=O)Nc2ccc(NC(C)=O)cc2)cc1", "values": [{"measurement": "activity change, negative = cytotoxicity", "setting": "[1]; at 26 µM (top of the series)", "value": "-7.48% (inactive)"}]}, {"smiles": "Cc1ccc(CNC(=O)CSc2c3c(nc4ccc(Cl)cc24)CCCC3)cc1", "values": [{"measurement": "AC50", "setting": "[2]", "value": "> 52 µM (inactive)"}]}, {"smiles": "O=C(COc1ccc(C(=O)N2CCC2)cc1)Nc1cccc(C(F)(F)F)c1", "values": [{"measurement": "activity change, negative = cytotoxicity", "setting": "[1]; at 26 µM (top of the series)", "value": "-3.29% (inactive)"}]}, {"smiles": "Cc1ccc(CNC(=O)CSc2c3c(nc4ccc(Cl)cc24)CCCC3)o1", "values": [{"measurement": "AC50", "setting": "[2]", "value": "> 52 µM (inactive)"}]}, {"smiles": "Cc1ccc(NC(=O)COc2ccccc2C(=O)NCCN(C)C)cc1", "values": [{"measurement": "activity change, negative = cytotoxicity", "setting": "[1]; at 26 µM (top of the series)", "value": "-14.7% (inactive)"}]}, {"smiles": "O=C(CSc1c2c(nc3ccc(Cl)cc13)CCCC2)N1CCOCC1", "values": [{"measurement": "AC50", "setting": "[2]", "value": "> 52 µM (inactive)"}]}, {"smiles": "COC(=O)CCCN(C)C(=O)c1ccc(OCC(=O)Nc2cccc(OC)c2)cc1", "values": [{"measurement": "activity change, negative = cytotoxicity", "setting": "[1]; at 26 µM (top of the series)", "value": "-8.54% (inactive)"}]}, {"smiles": "O=C(CSc1c2c(nc3ccc(Cl)cc13)CCCC2)N1CCNC1=O", "values": [{"measurement": "activity change, negative = cytotoxicity", "setting": "[1]; at 26 µM (top of the series)", "value": "-15.2% (inactive)"}]}, {"smiles": "COc1cc(CNCCCN2CCOCC2)ccc1OCC(=O)Nc1cccc(C(F)(F)F)c1", "values": [{"measurement": "AC50", "setting": "[2]", "value": "> 24 µM (inactive)"}]}, {"smiles": "CN(C(=O)COc1ccccc1C(N)=O)c1ccccc1", "values": [{"measurement": "activity change, negative = cytotoxicity", "setting": "[1]; at 26 µM (top of the series)", "value": "2.01% (inactive)"}]}, {"smiles": "CN(CCOc1ccccc1)C(=O)c1ccc(OCC(=O)Nc2cccc(C(F)(F)F)c2)cc1", "values": [{"measurement": "activity change, negative = cytotoxicity", "setting": "[1]; at 26 µM (top of the series)", "value": "-1.92% (inactive)"}]}, {"smiles": "Cc1ccc2nc(Cl)cc(SCC(=O)NCc3ccco3)c2c1", "values": [{"measurement": "activity change, negative = cytotoxicity", "setting": "[1]; at 26 µM (top of the series)", "value": "-16.7% (inactive)"}]}, {"smiles": "O=C(COc1ccccc1C(=O)NCCOc1ccc(Cl)cc1)Nc1cccc(Cl)c1", "values": [{"measurement": "AC50", "setting": "[2]", "value": "> 52 µM (inactive)"}]}]}
